# In ChEMBL document CHEMBL1201862, “PubChem BioAssay data set” (2004):
#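 96-well plates; 48 h exposure; 5 concentrations. Endpoints by linear interpolation between flanking doses. Not reached: highest tested concentration assigned. Abbreviation: GI50, concentration required for 50% inhibition of growth.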 Activity calls are given as the source filed them. Rule as the data show it: active = GI50 up to about 1.1 µM and inactive = higher.
# Test system: T47D
# Assay: NCI-60 cell line screen, 48 h
row,SMILES,GI50
1,Nc1nc(SCc2ccccn2)c2ncn(C3CCCC3)c2n1,76 µM (inactive)
2,C[N+](C)(C)CC1CCCc2ccccc2C1=O (stereo unspecified),1.73 µM (inactive)
3,CC(C)=NN/C(=N\c1ccc(Cl)cc1)NS(=O)(=O)c1ccc(C)cc1,23.8 µM (inactive)
4,O=C(N/N=C/c1ccco1)c1cc(I)cc(I)c1O,26 µM (inactive)
5,N#C/C=C(/NC(=O)Nc1ccccc1)N1CCCC1,> 85.1 µM (inactive)
6,CCOC(=O)n1c(=O)nc2c3c(ncn21)Oc1c(c(-c2ccccc2)nn1-c1ccccc1)C3c1ccc(Cl)cc1 (stereo unspecified),1.77 µM (inactive)
7,O=C(c1ccccc1)c1ccc2[nH]c(-c3c(Cl)c(Cl)c(Cl)c(Cl)c3C(=O)Nc3ccco3)nc2c1,37 µM (inactive)
8,COc1ccc2c3c1OC1C(OC)(OC)CC4(C=C2)CN(C)CCC314 (stereo unspecified),> 100 µM (inactive)
9,Nc1nncc2[nH]nnc12,> 100 µM (inactive)
10,C/C=C/[C@@H]1O[C@H](CC#C[Si](C)(C)C)[C@@]2(C=O)C(C)=CC[C@H](C(C)C)[C@@H]12,30.8 µM (inactive)
11,CCC(NC(C)c1ccccc1)C(=O)c1ccc(OCc2ccccc2)c(OCc2ccccc2)c1 (stereo unspecified),> 100 µM (inactive)
12,CCN1CN(c2ccccc2)C2(CCN(CCCSc3ccc(F)cc3)CC2)C1=O,3.26 µM (inactive)
13,Cc1ccccc1/N=N/c1c(O)ccc2ccccc12,59.3 µM (inactive)
14,O=C1c2ccccc2NC(c2cc(Cl)cc(Cl)c2O)N1CCc1ccccn1 (stereo unspecified),26.7 µM (inactive)
15,CCN(CC)Cc1cc(/N=N\c2c(O)ccc3c(/N=N\c4ccc(O)c(CN(CC)CC)c4)c(O)ccc23)ccc1O,10.3 µM (inactive)
16,CCCC1(CCC)c2cc(/C=N\O)ccc2-c2ccc(-c3ccc(C(C)(C)C)cc3)cc21,57.5 µM (inactive)
17,Cc1nc2ccc(Cl)cc2c2c1CCS2,> 100 µM (inactive)
18,COC1=CC2=NCCc3n[nH]c(c32)C1=O,2.9 µM (inactive)
19,ClC1=C(Cl)C2OC3C=CCC3OC2C(Cl)=C1Cl (stereo unspecified),2.47 µM (inactive)
20,COc1ccc(C2C3=CONC3CC3CCCCC32)cc1 (stereo unspecified),35.6 µM (inactive)
21,Cn1cnc(C(N)=[Se])c1N,3.65 µM (inactive)

row,SMILES,GI50
1,O=C(CN1CCN(C(=O)OCc2ccccc2)CCN(CC(=O)N2CCCCC2)CCN(C(=O)OCc2ccccc2)CC1)N1CCCCC1,17 µM (inactive)
2,COC(=O)C1=C(C(=O)OC)SC(=C2SC3=C(SC(=C4SCCS4)S3)S2)S1,> 100 µM (inactive)
3,CCN(CC)CCN1CCN=C2c3cc(OC)ccc3Nc3c([N+](=O)[O-])ccc1c32,5.65 µM (inactive)
4,CCOC1CCN(C(=O)c2ccccc2)O1 (stereo unspecified),> 10 µM (inactive)
5,O=C1CSC(c2ccccc2O)N1c1ccc(-n2c(-c3ccccc3)nc3ccccc3c2=O)cc1 (stereo unspecified),14.9 µM (inactive)
6,NNC(=O)c1cc(=O)[nH][nH]1,> 100 µM (inactive)
7,Cc1cccc2c(NCCCN(C)C)c3c([N+](=O)[O-])ccc(C)c3nc12,0.0879 µM (active)
8,Cc1cccc(CP(Cc2cccc(C)c2)CC2(Cp3c4ccccc4c4ccccc43)COC2)c1,1.73 µM (inactive)
9,CC(=O)c1c(O)ccc2c1c1c(n2C)C(=O)c2ccccc2C1=O,1.45 µM (inactive)
10,CN1CCN(/C(N)=C(\C#N)C(=O)Nc2ccc(Cl)cc2)CC1,> 100 µM (inactive)
11,COc1ccc(C(SC2C(O)C(CO)OC2n2ccc(=O)[nH]c2=O)(c2ccccc2)c2ccc(OC)cc2)cc1 (stereo unspecified),16.6 µM (inactive)
12,NC1=C(Cl)C(=O)c2c(O)ccc(O)c2C1=O,7.24 µM (inactive)
13,CCOC1CN(C)/C(=N\c2cccc3ccccc23)S1 (stereo unspecified),> 10 µM (inactive)
14,COC(=O)CC1C2CC3C(C2=O)C13 (stereo unspecified),> 100 µM (inactive)
15,O=C(CSc1nc2ccccc2c(=O)n1-c1ccccc1)N/N=C1\C(=O)Nc2ccc(Br)cc21,4.92 µM (inactive)
16,NC(=O)c1cc2ccccc2o/c1=N/c1ccccc1,> 100 µM (inactive)
17,COc1cc(C2S/C(=C/c3ccccc3)C(=O)N2c2cc(Cl)c(Cl)cc2Cl)cc(OC)c1OC (stereo unspecified),> 50.8 µM (inactive)
18,NC(=O)NC(=O)CCC(NS(=O)(=O)c1ccccc1)C(=O)NC(N)=O (stereo unspecified),> 100 µM (inactive)
19,Cc1ccc(NC(=O)c2cccc(OP(=O)(O)Nc3ccc(C)cc3)c2)cc1,79.3 µM (inactive)
20,O[C@H]1[C@H](O)[C@@H](O)[C@H](O)[C@@H](O)[C@H]1O [INOSITOL],> 1000 µM (inactive)
